These results are taken from PubChem BioAssay AID743394 (Broad Institute, 2014).

Molecules are shown by their SMILES. Activity calls are given as the source filed them.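 How the source made its calls: active means 40% activation versus positive control reached by fitted dose-response curve at or below highest valid tested dose; inconclusive means poor fit quality, or flat fit with activation between 30% and 70%; inactive means the rest.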

One assay in a line: Xi-linked GFP reactivating small molecules – imaging, 68-5-11 mouse fibroblasts, cherry-pick, dose response (AID 743394).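 Further: sensitizer 5-aza-dC present in the wells at 0.5 mM final.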 The following applies: 68-5-11 mouse fibroblast XiGFP reporter, % GFP-positive imaging, 3 d; at 19.5 µM (top of the series).
Turning to `COP(=S)(OC)Oc1ccc(Sc2ccc(OP(=S)(OC)OC)cc2)cc1`, the activation was 0.028% (inactive).

The assay is the same for the next values; noted with them: 68-5-11 mouse fibroblast XiGFP reporter, % GFP-positive imaging, 3 d; at 19.5 µM (top of the series); cells co-treated with 5-aza-dC sensitizer; scaled: neutral wells 0, ellipticine wells 100.
Turning to `O=C(O)c1ccccc1C1Nc2ccccc2C(=O)N1CCCN1CCOCC1` (centres undefined), the activation is 0.018% (inactive).

For `Cc1ccccc1-c1ccc(C2[C@@H]3CN(Cc4cocn4)C[C@H]2N3)cc1` (some centres undefined), the activation was -0.031% (inactive).

In the case of `COC(C(=O)NCc1ccc(C)cc1)c1ccccc1` (centres undefined), the activation is 0.114% (inactive).

`CC(=Nc1ccc(Cl)cc1N)c1c(O)cc(C)oc1=O`: the activation is -0.044% (inactive).

Consider `Cc1ccc(N(C)C(=O)C2CCN(S(=O)(=O)c3ccc4c(c3)oc(=O)n4C)CC2)cc1`, for which the activation is 0.016% (inactive).

In the case of `Cc1[nH]c2ccccc2c1/C=N/Nc1nc2ccccc2[nH]1`, the activation was -0.075% (inactive).

Consider `Cc1cc(NC(=O)c2c(-c3c(Cl)cccc3Cl)noc2C)n(C)n1`, for which the activation was -0.127% (inactive).

Turning to `Cc1ccc(NC(=O)c2ccc(=O)[nH]c2)cc1S(=O)(=O)N1CCCCCC1`, the activation is 0.105% (inactive).

In the case of `COc1ccc(/C=C\c2onc(C)c2S(=O)(=O)N2CCC(C(=O)NCc3ccco3)CC2)cc1`, the activation is 0.355% (inactive).

In the case of `Cc1ccc(-c2csc3nc4c5ccccc5c(NCCCN(C)C)nn4c(=O)c23)cc1`, the activation is -0.05% (inactive).

Take `O=C(NC1=C(NC2CCS(=O)(=O)C2)C(=O)c2ccccc2C1=O)c1ccccc1` (centres undefined): the activation was -0.047% (inactive).

As to `COc1ccc(Cl)cc1C(=O)Nc1ccccc1N1CCCCC1`, the activation is 1.48% (inactive).

`COC(=O)CCN1CCC(c2cc(-c3cccc(C(F)(F)F)c3)n[nH]2)CC1`: the activation is 0.056% (inactive).

Take `Cc1ccc(C)c(CSC2=NN3CCCC(=O)N=C3S2)c1`: the activation is -0.017% (inactive).

As for `CC(C)(C)[S@@](=O)N1Cc2cc(C(=O)N3CCCCC3)nc(-c3cccc(-c4cccc(C#N)c4)c3)c2[C@H]1CCO`, the activation was -0.031% (inactive).

Turning to `CC(C)(C)NC(=O)C(c1c[nH]c2ccccc12)N(C(=O)Cn1nnc(-c2ccc(Cl)cc2)n1)c1ccccc1F` (centres undefined), the activation is 0.104% (inactive).

As for `Cc1nn(-c2ccccc2)c(N)c1N=O`, the activation is -0.053% (inactive).

For the compound `N#Cc1ccccc1Cn1cc(/C=N/Nc2ccc([N+](=O)[O-])cn2)c2ccccc21`, the activation was 10.9% (inactive).

As to `C/C(=N\NC(=O)c1ccccc1Cl)c1ccccn1`, the activation is 3.5% (inactive).

In the case of `C[C@@H]1CN([C@@H](C)CO)C(=O)c2cc(NS(=O)(=O)c3ccccc3)ccc2O[C@@H](C)CCCCO[C@@H]1CN(C)Cc1ccc2c(c1)OCO2`, the activation was 0% (inactive).

As for `COc1ccccc1N(C)c1cc2c(c3c1ccn3C)C1CCC2C1` (centres undefined), the activation is 0.146% (inactive).

On to `Cc1cc(C(=O)Nc2ccc(Cl)c(S(=O)(=O)N3CCOCC3)c2)c2ccccc2n1`, for which the activation was -0.053% (inactive).

`CCOC(=O)Nc1cc2c(c(N)n1)N=C(c1ccccc1)CN2`: the activation is -0.053% (inactive).

As for `COc1ccccc1N=Nc1c(C)[nH]n(-c2ccccc2)c1=O`, the activation was -0.075% (inactive).

Take `Cn1cc(C(=O)N/N=C/C(Br)=C/c2ccccc2)ccc1=O`: the activation is -0.07% (inactive).

Take `CCOc1ccccc1N1C(=O)CC(Sc2nccc(C)n2)C1=O` (centres undefined): the activation is -0.095% (inactive).

As for `COc1ccc(-n2c(=O)n(Cc3ccccc3)c(=O)c3[nH]cnc32)cc1`, the activation is -0.053% (inactive).

In the case of `CO[C@@H]1CN(C)C(=O)c2ccc(NC(=O)Nc3cccc(Cl)c3)cc2OC[C@H](C)N(C(=O)Nc2c(C)noc2C)C[C@H]1C`, the activation was -0.002% (inactive).

Take `Cc1noc(C)c1S(=O)(=O)Nc1ccc2c(c1)C(=O)N([C@H](C)CO)C[C@H](C)[C@H](CN(C)C(=O)Nc1ccc(F)cc1)OCCCC[C@H](C)O2`: the activation is 0.022% (inactive).

`Cc1cc(NC(=O)CSc2nnc(-c3c[nH]c4ccccc34)n2-c2ccc(F)cc2)no1`: the activation was 0.139% (inactive).

Take `COc1ccc(N2CCN(C(CNC(=O)c3ccc4c(c3)OCO4)c3ccco3)CC2)cc1` (centres undefined): the activation was -0.08% (inactive).

With `COc1cc(/C=C/c2ccc3cccc(O)c3n2)cc(OC)c1OC`, the activation is -0.032% (inactive).

In the case of `Cc1cccc(NC(=O)Cn2cnc3c(oc4nc5c(cc43)COC(C)(C)C5)c2=O)c1`, the activation was 4.42% (inactive).

Turning to `COc1cc(/C=C(\C#N)c2nc3ccccc3o2)ccc1O`, the activation is 1.85% (inactive).

Take `C[C@H](NC(=O)C[C@@H]1CC[C@H](NC(=O)Cc2ccccn2)[C@@H](CO)O1)c1ccccc1`: the activation is 0.019% (inactive).

As for `CCOC(=O)C1CCN(c2c(NCc3ccc(C(=O)NC4CCCC4)cc3)c(=O)c2=O)CC1`, the activation was -0.034% (inactive).

On to `O=[N+]([O-])c1ccccc1-c1ccc(C(=S)N2CCN(c3ccccc3)CC2)o1`, for which the activation was 0.417% (inactive).

With `COc1cccc(C(=O)c2c(-c3ccccc3)ncc3cc(OC)c(OC)cc23)c1`, the activation was 0.006% (inactive).

Regarding `Oc1ccc(Cl)cc1C=Nc1ccc2c3c(cccc13)CC2`, the activation is 0.039% (inactive).

For `C=C(C)c1cccc(C(C)(C)NC(=O)Nc2nnc(C(C)C)s2)c1`, the activation was -0.035% (inactive).

`COc1ccccc1C#Cc1ccc2c(c1)O[C@H](CN(C)Cc1cncnc1)[C@@H](C)CN([C@H](C)CO)S2(=O)=O`: the activation was 0.045% (inactive).

Take `O=C(NCCO)/C(=C/c1ccco1)NC(=O)c1ccco1`: the activation is -0.047% (inactive).

For the compound `C[C@@H]1CN([C@@H](C)CO)C(=O)c2cc(NS(=O)(=O)c3cn(C)cn3)ccc2O[C@@H](C)CCCCO[C@H]1CN(C)C(=O)c1ccccc1`, the activation was 0.016% (inactive).

Turning to `Cc1ccc(C(=O)NCc2ccccn2)cc1NC1=NC2CS(=O)(=O)CC2S1` (centres undefined), the activation was 0.151% (inactive).

Consider `O=C(C[C@@H]1C[C@@H]2c3cc(NC(=O)C4CCC4)ccc3O[C@@H]2[C@@H](CO)O1)NCc1ccc(Cl)cc1`, for which the activation was 0.899% (inactive).

As to `COc1ccc(S(=O)(=O)N(C)C[C@H]2Oc3ccc(NS(=O)(=O)c4ccc(F)cc4)cc3CC(=O)N([C@@H](C)CO)C[C@@H]2C)cc1`, the activation is 0.034% (inactive).

In the case of `COc1ccc2c3c([nH]c2c1)[C@H](CO)N(C(=O)C1CCCC1)CC31CN(Cc2nccs2)C1`, the activation was -0.007% (inactive).

For the compound `Cc1ccc(Nc2nc(N)nc(COC(=O)C3=COCCO3)n2)cc1`, the activation is 0.004% (inactive).

In the case of `COC(=O)c1c(NC(=O)c2ccccc2)sc2c1CC(C)(C)NC2(C)C`, the activation was 0.021% (inactive).

With `ClC1CCCCC1n1nnc2ccccc21` (centres undefined), the activation was 0.006% (inactive).

As for `Cc1ccc(C(=O)Cn2cncn2)cc1`, the activation was -0.053% (inactive).

Consider `CC1CN(Cc2c(O)ccc3c2oc(=O)c2ccccc23)CC(C)O1` (centres undefined), for which the activation is -0.012% (inactive).

`COc1ccc(Cc2c(O)nc(SCC(=O)NC34CC5CC(CC(C5)C3)C4)[nH]c2=O)cc1`: the activation was 0.41% (inactive).

For `CC(=O)Nc1sc(C)c(C)c1C(=O)OCC(=O)Nc1cc(S(C)(=O)=O)ccc1Cl`, the activation is 0.641% (inactive).

As for `COc1ccc(/C=C2\CCc3ccccc3C2=O)cc1CN1CCOCC1`, the activation is 0.231% (inactive).

`Cc1ccc(-c2nc(CS(=O)CC(=O)NCCCN3CC(C)CC(C)C3)c(C)o2)cc1` (centres undefined): the activation was 0.4% (inactive).

In the case of `CC(=O)c1ccc(NC(=O)COC(=O)CCc2ccc(S(=O)(=O)N3CCOCC3)cc2)cc1`, the activation was 0.332% (inactive).

For the compound `COc1ccc(N(CC(=O)Nc2nccs2)S(=O)(=O)c2c(C)[nH]c(=O)[nH]c2=O)cc1`, the activation was 0.033% (inactive).

For the compound `CC(C)(C)C1CCNC(=O)CC1` (centres undefined), the activation was 0.008% (inactive).

In the case of `COC(=O)c1c(NC(=O)c2ccc(C)cc2)csc1C`, the activation is 0.018% (inactive).

As to `O=c1[nH]c(=O)n([C@H]2C[C@H](O)[C@@H](CO)O2)cc1C(F)(F)F`, the activation is -0.032% (inactive).

In the case of `C=CCN(CC(O)c1cccc([N+](=O)[O-])c1)C(C)CCc1ccccc1` (centres undefined), the activation was -0.039% (inactive).

Consider `C=CC[C@@H](CC(=O)N(CCO)Cc1ccccc1)C(=O)NCCOC(=O)[C@@H](CC=C)Cc1ccc(F)cc1`, for which the activation is -0.009% (inactive).

On to `C[C@H]1CCCCO[C@@H](CN(C)C(=O)Nc2ccc(C(F)(F)F)cc2)[C@@H](C)CN([C@@H](C)CO)C(=O)c2cc(NC(=O)CCC(F)(F)F)ccc2O1`, for which the activation is 0.048% (inactive).

With `CC(C)Oc1ccc(/C(O)=C2/C(=O)C(=O)N(CCN(C)C)C2c2cccs2)cc1` (centres undefined), the activation is 0.063% (inactive).

In the case of `Cc1ccccc1NC(=O)c1c(C)[nH]c(=S)c(C#N)c1-c1ccc(Cl)cc1`, the activation is 0.075% (inactive).

`COc1ccc(CN(C)C[C@H]2OCCCC[C@H](C)Oc3ccc(NC(=O)Nc4ccc(F)cc4)cc3C(=O)N([C@H](C)CO)C[C@H]2C)cc1`: the activation was 0.981% (inactive).

`O=C(Nc1ccc(F)cc1)N1CC(=O)N2[C@H](CO)[C@H](c3ccc(C#Cc4ccc(F)cc4)cc3)[C@@H]2C1`: the activation is -0.031% (inactive).

For the compound `CCOC(=O)c1sc(Nc2ccc(Br)cc2)nc1C`, the activation is 0.082% (inactive).

On to `COc1ccc(N(C)S(=O)(=O)c2cccc(C(=O)NCC(c3cccs3)N(C)C)c2)cc1` (centres undefined), for which the activation was 0.036% (inactive).

Regarding `CC(C)CC(=O)Nc1c2c(nn1-c1ccc(F)cc1)CSC2`, the activation is 0.542% (inactive).

Take `COc1ccc2c(c1)C(C)=CC(C)(C)N2S(=O)(=O)c1ccc(Br)cc1`: the activation is 0.373% (inactive).

Still in this assay, the particulars now being: 68-5-11 mouse fibroblast XiGFP reporter, % GFP-positive imaging, 3 d; at 21 µM (top of the series); cells co-treated with 5-aza-dC sensitizer; scaled: neutral wells 0, ellipticine wells 100.
As for `CO[C@H](CN(C)C(=O)Nc1ccc(C(F)(F)F)cc1)[C@@H](C)CN(Cc1ccccc1Cl)[C@@H](C)CO`, the activation was 0% (inactive).
